Reference: patent US6864245B2, “Biocompatible poly-β-1→4-N-acetylglucosamine” (priority 1993, dated 2005)
“And” between values parts separate entries of the source, which are not always exact repeats. Identical values can stand only once. Like-named read-outs stand apart in the source and are kept apart here.

Test system: HT29 colon tumors
Conditions: Intravenous Injection, daily

O=c1[nH]cc(F)c(=O)[nH]1 [5′-FU, 5′-fluorouracil]
% Change (High Dose): −67.0%
Comments (death) (High Dose): Died day 13
Tumor Volume Post-treatment (High Dose): 132 mm^3
Tumor Volume Pre-Treatment (High Dose): 402 mm^3
Comments (death) (Low Dose): Died day 13
Tumor Volume Post-treatment (Low Dose): 703 mm^3 and 402 mm^3
Tumor Volume Pre-Treatment (Low Dose): 402 mm^3
